The test system of data set [1] is lolitrem B toxicosis (Rye Grass Staggers). The data set can be described thus: Clinical and neurological signs in sheep fed lolitrem B-containing toxic feed with or without potassium bromide. Format: in vivo. Here is the method: Animals were exposed to a controlled diet containing 0.16 mg/kg body weight (BW) lolitrem B toxin rising to 0.27 mg/kg BW after 21 days exposure to toxic feed. Toxin was delivered as perennial rye grass seed (GA66 AR98, Grasslanz Technology Ltd, NZ) containing very high levels of lolitrem B toxin (11 ppm DM) as a component of the animal's feed intake.
On entry to the trial, all animals receiving toxic feed were exposed to a diet containing experimental ryegrass seed with a final lolitrem B concentration of 0.08 mg/kg LW, lucerne chaff and molasses 30% w/v for 3 days. After this induction period, the toxin content of the feed was increased to 0.16 mg/kg LW for the duration of the trial. […] Ryegrass seed constituted up to 65% of available Feed on Offer (FOO) by dry weight contributing a metabolisable energy of 12.1 Mj/kg DM.
At entry to the trial, all animals were subjected to a full clinical examination. Live weight was recorded. Venous blood and urine samples were collected for laboratory. Animals were also subjected to gait analysis, neurological examination including proprioceptive testing, cranial nerve examination and papillary light and menace reflexes. Electromyography (EMG) of tricep and neck muscles was performed. Gait analysis (see below) was repeated at three day intervals until onset of significant clinical signs and/or gait abnormality at which point animals were subjected to gait analysis daily. Gait analysis was recorded on video each occasion.
General clinical signs were also noted on a daily basis; these included observations of nervousness or agitation, changes in normal placement of body, limb or head position changes in faecal consistency, feeding behaviour or water consumption, observeable tremor of the body or head, eye position (strabismus) and movement (nystagmus), locomotory disturbances, or any other clinical changes worthy of note. Feed and water intake was monitored daily for the duration of the trial. Heart rate, respiration rate at rest and rectal temperature were also monitored daily.
Prophylactic sheep received a split loading dose of 300 mg/kg on day 1, 120 mg/kg (100 mg LD+20 mg/kg daily maintenance dose) on day 2, 120 mg/kg on day 3 and 20 mg/kg daily for the duration of the trial. An acute treatment dose of 300 mg/kg LW was used for the trial. Both prophylactic and acute treatment doses were envisaged to give serum concentrations of 750 to 1000 μg/ml for the duration of the initial weeks of the trial.
Group 1—Negative Control: lucerne chaff only;
Group 2—Positive Control: lucerne chaff containing 0.16 mg/kg LW lolitrem B;
Prophylactic treatment sheep (Groups 4 & 5) received a split loading dose of 300 mg/kg on day 1 of the trial, 120 mg/kg (100 mg LD 20 mg/kg daily maintenance dose) on day 2, 120 mg/kg on day 3 and 20 mg/kg daily thereafter. Acute therapy sheep were dosed with a single dose of 300 mg/kg on day of falling.
End of the trial was defined for Groups 2 and 3 as date of falling. Group 1 animals entered the end of trial protocol with their Group 2 counterparts. Group 4 and 5 animals entered the end of trial protocol after 22 days. This end of trial protocol consisted of the following analysis: • On Day 1: animals were subjected to a full clinical examination, gait analysis, urine and blood collection, neurological examination and EMG. • On Day 2: further gait analysis was recorded, • On Day 3: animals were again subjected to full clinical examination, gait analysis, urine and blood collection, neurological examination and EMG as well as live weight recorded prior to necropsy.

A further data set deals with sheep. The experiment in a line: Clinical pathology of serum and urine. Format: in vivo. Particulars: toxin only and acute treatment groups, not outside normal ranges. The source says: Venous blood samples collected for biochemical analysis and haematocrit (PCV), and urine for USG, at three specific time points during the experiment for all animals: 1) on entry to the trial; 2) on date of entry to the end of trial protocol and, 3) on day of necropsy. Additional venous blood samples were occasionally collected for analysis of serum bromide (see below).
For venous sampling, blood was collected from either the right or left jugular vein as determined by convenience and sampler preference. Needle hubs and sterile, single use 21 G needles and 10 mL Vacutainer® tubes were used for collection. Two Vacutainer® tube types were used for each animal: one containing a clot activator for serum collection, the other contained ethylenediamine tetra-acetic acid (EDTA) to prevent clotting. Tubes were inverted repetitively immediately after collection prior to storage on ice for transport to the laboratory. […]
Urine samples were collected by attachment of a clean plastic bag using SuperGlue™ to the fleece on either side of the preputial opening. […] Urine specific gravity (USG) was determined using a refractometer (VQ5600 refractometer, VetQuip, Australia).
Haematological and biochemical analysis was performed by the laboratory within 60 minutes of blood collection. Haematological analytes were measured using a CellDyn 3700 Haematology System (Abbott Diagnostics, Abbott Park, Ill., USA). […]

For data set [2] the following is noted: PK studies performed prior to this trial (Combs and Edwards, personal communication); cited from earlier work.
The test system of another data set is lolitrem B intoxication. The experiment in a line: KBr pre-treatment in rodent model of PRGT (lolitrem B injection), tremor analysis and novel arena test. Format: in vivo, mice. As to the method: Mice were administered 2500 ppm KBr in their drinking water for 7 days prior to injection with lolitrem B (2 mg/kg IP).
[3] abbreviates: sheep, Group 2: toxic feed (lolitrem B 0.16 mg/kg LW), no treatment.
Setting [4] is: sheep, Group 3: toxic feed plus single oral 300 mg/kg KBr on day of falling.
Setting [5] is: sheep, Group 4: toxic feed plus prophylactic oral KBr (300, 120, 120 then 20 mg/kg daily), 22 days.
Where [6] appears, read: sheep, Group 5: prophylactic oral KBr only, no toxic feed, 22 days.
Where [7] appears, read: 2500 ppm KBr in drinking water 7 days prior to lolitrem B 2 mg/kg IP, one hour post injection.
Where [8] appears, read: 2500 ppm KBr in drinking water 7 days, 3.5 hours post lolitrem B 2 mg/kg IP.

Molecules are shown by their SMILES. Marks after values point to notes of the source that are not given here.

Turning to `CC(C)=C[C@H]1O[C@H]2[C@H]3O[C@@]34[C@H](CC[C@@]3(C)[C@@]4(O)CC[C@H]4Cc5c([nH]c6ccc7c(c56)C[C@@H]5[C@@H](C7=O)C(C)(C)OC5(C)C)[C@@]43C)O[C@@H]2C(C)(C)O1` [lolitrem B], in data set [1] (intoxicated sheep), the “time from Type 1 to Type 2 gait changes” value is “approximately 9 days”. In data set [1] (lolitrem B intoxicated sheep), the Menace reflex entry is “either lost or reduced” and the pupillary light reflex entry is recorded as “normal”. Further, in data set [1] (sheep, Group 2 (toxin only)), the “Ventral strabismus, animals affected” value is 9/9. For the same compound, in data set [1] (setting [3]), the “Altered stance, mean number of days to onset (+/−s.e.m.)” value (“Altered stance, mean number of days” for short) is recorded as 11.78(+/−2.58) days; the “Altered stance, number of animals affected” value (“Altered stance, number” below) is recorded as 9/9; the “Fine tremor, mean number of days to onset (+/−s.e.m.)” value (“Fine tremor, mean number of days” for short) is listed as 8.22(+/−2.58) days; the “Fine tremor, number of animals affected” value is 9/9. Also, in data set [1] (setting [3]), the “First clinical signs, mean number of days to onset (+/−s.e.m.)” value (“First clinical signs, mean number” for short) is reported as 7.56(+/−2.06) days; the “First clinical signs, number of animals affected” value (from here on “First clinical signs, number”) was 9/9; the “Major body clonus, mean number of days to onset (+/−s.e.m.)” value (“Major body clonus, mean number of days” below) is on record as 17.33(+/−3.51) days; the “Major body clonus, number of animals affected” value (from here on “Major body clonus, number”) was 3/9. Further, the “Ventral strabismus, animals affected” value in data set [1] (sheep, Group 3 (toxin, acute KBr on day of falling)) was 7/9. The “Ventral strabismus, animals affected” value in data set [1] (sheep, Group 4 (toxin plus prophylactic KBr)) is recorded as 6. In addition, the “Renal function (creatinine, urea)” value in the data set with sheep is listed as “mildly compromised”.

As to `[Br-].[K+]` [potassium bromide], in data set [1] (setting [4]), the “Altered stance, mean number of days” value was 10.22(+/−2.10) days; the “Altered stance, number” value is 9/9; the “Fine tremor, mean number of days” value is 12.43(+/−4.82) days; the “Fine tremor, number of animals affected” value is given as 7/9. Further, in data set [1] (setting [4]), the “First clinical signs, mean number” value was 8.56(+/−1.94) days; the “First clinical signs, number” value was 9/9; the “Major body clonus, mean number of days” value is given as 11.67(+/−2.88) days; the “Major body clonus, number” value is 3/9. Further, the “animals showing evidence of mild anxiolysis” value in data set [1] (sheep, Group 4: toxic feed plus prophylactic oral KBr) is reported as “^aIncludes 4/9 animals showing evidence of mild anxiolysis”. Also, in data set [1] (setting [5]), the “Altered stance, mean number of days” value is on record as 8.33(+/−1.22) days; the “Altered stance, number” value was 9/9; the “Fine tremor, mean number of days” value is 12.14(+/−4.45) days; the “Fine tremor, number of animals affected” value is 7/9. Also, in data set [1] (setting [5]), the “First clinical signs, mean number” value is given as 6.33(+/−1.73) days; the “First clinical signs, number” value is reported as 9/9^a; the “Major body clonus, mean number of days” value is listed as 10.67(+/−2.65) days; the “Major body clonus, number” value was 5/9. In data set [1] (sheep, Group 4 versus Groups 2 and 3), the “altered stance reported earlier than in toxin-only counterparts” value is “approximately two”. Also, the “animals showing evidence of mild anxiolysis” value in data set [1] (sheep, Group 5: prophylactic oral KBr only) is on record as “^bIncludes 5/9 animals showing evidence of mild anxiolysis”. In data set [1] (setting [6]), the “Altered stance, mean number of days” value is on record as 11.0(+/−4.69) days; the “Altered stance, number” value is listed as 4/9; the “Fine tremor, mean number of days” value is reported as 11.00(+/−0.0) days; the “Fine tremor, number of animals affected” value was 1/9. Besides, in data set [1] (setting [6]), the “First clinical signs, mean number” value is 10.75(+/−4.46) days; the “First clinical signs, number” value was 8/9^b; the “Major body clonus, mean number of days” value worked out at 0 days; the “Major body clonus, number” value is given as 0/9. For the same compound, in data set [1] (sheep, potassium bromide at the prophylactic dose), the “range of onset of mild mood changes” value lay within 4 to 17 days. Also, in data set [2], the “time of peak serum bromide levels post administration” value was 6 h. In the data set with lolitrem B intoxication (setting [7]), the peak tremor frequency entry is listed as “reduced” and the “tremor to movement ratio” value is “reduced”. Moreover, in the data set on lolitrem B intoxication (setting [8]), the “movement in novel arena test” value was “increased” and the “time freezing in novel arena test” value is “reduce”.

Values taken from patent publication US9913858B2, “Prevention and treatment of toxicosis” (priority 2013, dated 2018).
